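96-well plates; 48 h exposure; 5 concentrations. Endpoints by linear interpolation between flanking doses. Not reached: highest tested concentration assigned. GI50 marks 50% less growth. The concentration for full growth arrest is given as TGI.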
What was measured:
Assay in all cases: NCI anticancer screen, dose series, 48 h
[1] = tested on: 786-0 renal
[2] = tested on: A549 NSCLC
[3] = tested on: CCRF-CEM leukemia
[4] = tested on: EKVX NSCLC
[5] = tested on: KM12 colon
[6] = tested on: NCI-H522 lung
[7] = tested on: OVCAR-8 ovarian
[8] = tested on: SF-539 CNS
[9] = tested on: SK-MEL-2 melanoma
[10] = tested on: TK-10 renal

SMILES	TGI [1]	TGI [2]	TGI [3]	TGI [4]	TGI [5]	TGI [6]	TGI [7]	TGI [8]	TGI [9]	TGI [10]	GI50 [1]	GI50 [2]	GI50 [3]	GI50 [4]	GI50 [5]	GI50 [6]	GI50 [7]	GI50 [8]	GI50 [9]	GI50 [10]
CCOc1cc2ccc3c4cc(OC)c(OC)cc4cnc3c2cc1OCC	> 100 µM	> 100 µM	> 100 µM	> 100 µM	> 100 µM	> 100 µM	> 100 µM	> 100 µM	> 100 µM	> 100 µM										
C[C@@H](N)C1CCC(C(=O)Nc2ccncc2)CC1 (some centres undefined)	> 100 µM	> 100 µM	> 100 µM	> 100 µM	> 100 µM	> 100 µM	> 100 µM	> 100 µM	> 100 µM	> 100 µM	> 100 µM	> 100 µM	51.2 µM	15 µM	> 100 µM	> 100 µM	> 100 µM	> 100 µM	> 100 µM	8.7 µM
CC(/C=C/C(=O)c1sc(-n2nc(-c3ccccc3)cc2-c2ccccc2)nc1C)=C\c1ccccc1	> 100 µM	> 100 µM	> 100 µM	> 100 µM	> 100 µM	> 100 µM	> 100 µM	> 100 µM	> 100 µM					9.73 µM						
Cc1nnc(N=Nc2c(O)[nH]c3c(Cl)cc(Cl)cc23)n1N	> 100 µM	> 100 µM	> 100 µM	> 100 µM	> 100 µM	> 100 µM	> 100 µM	> 100 µM	> 100 µM	> 100 µM										
CCN(CC)CC.CCOc1ccc(NC(=O)N=C=[N-])cc1.[CH-]1CCCCC1.[CH-]1CCCCC1.[CH-]1CCCCC1.[Cl-].[Sn+4]	0.0372 µM	0.107 µM	0.515 µM	0.143 µM	0.0429 µM	0.0549 µM	0.123 µM	0.052 µM	0.0964 µM	0.116 µM	0.0157 µM	0.0331 µM	< 0.0162 µM	0.043 µM	0.0161 µM	0.0205 µM	0.0424 µM	0.0234 µM	0.0376 µM	0.0458 µM
COC(=O)C(Cc1cnc[nH]1)NC(=O)CNC(=O)CCCn1c(=O)c2c3ccccc3n(C)c2n2nnc(-c3ccccc3)c12 (centres undefined)	> 100 µM	> 100 µM	> 100 µM	> 100 µM	> 100 µM	> 100 µM	> 100 µM	> 100 µM	> 100 µM	> 100 µM	> 100 µM	> 100 µM	> 100 µM	> 100 µM	> 100 µM	> 100 µM	> 100 µM	> 100 µM	> 100 µM	> 100 µM
COc1c(C)c2c(c3c1c(=O)c1ccccc1n3C)C=CC(C)(C)O2	69.8 µM	26.7 µM	83.9 µM	> 100 µM	60.9 µM	67.3 µM	91.5 µM	44.9 µM	48.3 µM	> 100 µM										
O=C(NCCO)c1cc2c(cn1)[nH]c1ccccc12	33.7 µM	> 100 µM	> 100 µM	> 100 µM	> 100 µM	> 100 µM	> 100 µM	> 100 µM	33.6 µM	> 100 µM										
O=C(CCCCCCCn1cc(-c2cccnc2)nn1)Nc1ccccc1-c1ccccc1	> 100 µM	> 100 µM	> 100 µM	> 100 µM	24.2 µM		27.9 µM	> 78.8 µM	38.1 µM	> 100 µM	4.13 µM	1.15 µM	0.435 µM	10.5 µM	0.607 µM	0.0508 µM	0.0437 µM	0.0522 µM	5.52 µM	17.4 µM
CC1=C(C(=O)Nc2ccccc2)C(c2ccc([N+](=O)[O-])cc2)C(C(=O)Nc2ccccc2)=C(C)N1	59 µM	> 100 µM	39.8 µM	46.2 µM	34.8 µM	63.8 µM	35.8 µM	44.9 µM	31.4 µM	> 100 µM										
COc1ccccc1/C=C/C(=O)c1c(O)cc2occc2c1OC	98.4 µM	> 100 µM	> 100 µM	> 100 µM	> 100 µM	> 100 µM	> 100 µM	> 100 µM	> 100 µM	62.7 µM	35.3 µM	> 100 µM	9.72 µM	37.1 µM	> 100 µM	> 100 µM	53.8 µM	24.3 µM	> 100 µM	21.9 µM
c1ccc(N=c2snc3scc(-c4ccccc4)n23)cc1	> 100 µM	> 100 µM	> 100 µM	> 100 µM	> 100 µM	38.4 µM	> 100 µM	> 100 µM	> 100 µM	> 100 µM										

— PubChem BioAssay (NCI)
